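1) Cells in 96-well plates. 2) Compound, 48 h, 5 concentrations. 3) Linear interpolation between surrounding doses. 4) Unreached endpoint = highest concentration. The concentration for 50% growth inhibition is given as GI50.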 The source made the active and inactive calls. Cut-off read from the data, not from the text of the source: active = GI50 up to about 1.1 µM and inactive = higher.
What was measured:
Assay in all cases: DTP human tumour cell line panel, 48 h
NCI-H23 = system: NCI-H23
SNB-19 = system: SNB-19
CAKI-1 = system: CAKI-1
HOP-62 = system: HOP-62
A549 = system: A549
SW-620 = system: SW-620
M14 = system: M14
SK-OV-3 = system: SK-OV-3
OVCAR-8 = system: OVCAR-8
SNB-75 = system: SNB-75
HT-29 = system: HT-29
ACHN = system: ACHN
HL-60 = system: HL-60
SR = system: SR
LOX IMVI = system: LOX IMVI
U-251 = system: U-251
SF-295 = system: SF-295
SK-MEL-28 = system: SK-MEL-28
NCI/ADR-RES = system: NCI/ADR-RES
DU-145 = system: DU-145

Measured: GI50

O=C(N/N=C(/CCN1CCCC1)CC(c1ccccc1)c1c(O)c2ccccc2oc1=O)c1ccncc1 (stereo unspecified)
inactive: NCI-H23 > 100 µM | SNB-19 > 100 µM | CAKI-1 > 100 µM | HOP-62 > 100 µM | A549 > 100 µM | SW-620 41.2 µM | M14 94.6 µM | SK-OV-3 > 100 µM | OVCAR-8 > 100 µM | SNB-75 > 100 µM | HT-29 > 100 µM | ACHN > 100 µM | HL-60 30 µM | SR 15.4 µM | LOX IMVI > 100 µM | U-251 > 100 µM | SF-295 > 100 µM

COC(=O)/C=C(C)/C=C/c1cc(C(C)=O)c(C)o1
inactive: NCI-H23 > 100 µM | SNB-19 > 100 µM | CAKI-1 > 100 µM | HOP-62 > 100 µM | A549 66.7 µM | SW-620 > 100 µM | M14 > 100 µM | SK-OV-3 > 100 µM | OVCAR-8 > 100 µM | SNB-75 68.4 µM | HT-29 > 100 µM | ACHN > 100 µM | HL-60 > 100 µM | SR > 100 µM | LOX IMVI > 100 µM | U-251 > 100 µM | SF-295 > 100 µM

CCOC(=O)C1=C(O)C(=O)c2ccsc2C1=O
inactive: NCI-H23 > 100 µM | SK-MEL-28 > 100 µM | SNB-19 > 100 µM | CAKI-1 > 100 µM | HOP-62 > 100 µM | A549 > 100 µM | SW-620 > 100 µM | M14 > 100 µM | SK-OV-3 > 100 µM | OVCAR-8 > 100 µM | SNB-75 > 100 µM | HT-29 > 100 µM | ACHN > 100 µM | HL-60 > 100 µM | SR > 100 µM | LOX IMVI > 100 µM | U-251 > 100 µM | SF-295 > 100 µM

COC(=O)C(C(=O)C(=O)Nc1cccc([N+](=O)[O-])c1)c1nc2ccc([N+](=O)[O-])cc2nc1O (stereo unspecified)
inactive: NCI-H23 > 100 µM | SK-MEL-28 > 100 µM | SNB-19 > 100 µM | CAKI-1 > 100 µM | HOP-62 > 100 µM | A549 > 100 µM | SW-620 > 100 µM | M14 > 100 µM | SK-OV-3 > 100 µM | OVCAR-8 > 100 µM | SNB-75 70.6 µM | HT-29 > 100 µM | ACHN > 100 µM | HL-60 > 100 µM | SR > 100 µM | LOX IMVI > 100 µM | U-251 > 100 µM | SF-295 > 100 µM

CN(C)CCOC1(Cc2ccc(Cl)cc2Cl)CCC(C(C)(C)C)CC1 (stereo unspecified)
inactive: NCI-H23 2.5 µM | SK-MEL-28 1.65 µM | SNB-19 1.75 µM | CAKI-1 2.25 µM | HOP-62 1.74 µM | A549 3.18 µM | SW-620 1.51 µM | M14 1.79 µM | SK-OV-3 2.25 µM | OVCAR-8 1.94 µM | SNB-75 1.67 µM | HT-29 1.52 µM | ACHN 2.99 µM | SR 2.52 µM | LOX IMVI 1.44 µM | U-251 1.46 µM | NCI/ADR-RES 2.3 µM | SF-295 1.65 µM

c1ccc(-c2cc(-c3cc(-c4ccccc4)n(-c4ccccc4)n3)nn2-c2ccccc2)cc1
inactive: NCI-H23 > 100 µM | SNB-19 > 100 µM | CAKI-1 > 100 µM | HOP-62 35.7 µM | A549 > 100 µM | DU-145 > 100 µM | M14 > 100 µM | SK-OV-3 > 100 µM | OVCAR-8 > 100 µM | SNB-75 56.9 µM | HT-29 > 100 µM | ACHN > 100 µM | U-251 > 100 µM | NCI/ADR-RES > 100 µM | SF-295 > 100 µM

O=C1c2ccc3c4ccccc4n(Cc4ccccc4)c3c2C(=O)N1c1ccccc1
inactive: NCI-H23 12.9 µM | SK-MEL-28 17 µM | SNB-19 20 µM | CAKI-1 12.5 µM | HOP-62 > 36.9 µM | A549 17.3 µM | SW-620 5.98 µM | M14 14.8 µM | SK-OV-3 24.9 µM | OVCAR-8 15.6 µM | SNB-75 13.8 µM | HT-29 16.4 µM | ACHN > 35.7 µM | HL-60 4.51 µM | SR 5.61 µM | LOX IMVI 16.2 µM | U-251 15.8 µM | SF-295 14.7 µM

CCOC(=O)Cn1c(C)nc2nn(Cc3ccccc3)cc2c1=O
inactive: NCI-H23 > 100 µM | SK-MEL-28 > 100 µM | SNB-19 > 100 µM | HOP-62 > 100 µM | A549 > 100 µM | DU-145 > 100 µM | SW-620 > 100 µM | M14 > 100 µM | SK-OV-3 > 100 µM | OVCAR-8 > 100 µM | HT-29 > 100 µM | ACHN > 100 µM | U-251 > 100 µM | NCI/ADR-RES > 100 µM | SF-295 > 100 µM

Source: ChEMBL document CHEMBL1201862, “PubChem BioAssay data set” (2004)
